From US20170058282A1 (priority 2015, published 2017)

How the values were obtained:
[1] = target: T1, Lactococcus lactis heme-responsive transcription factor HrtR, SEQ ID NO: 1 (in E. coli MG1655, HrtR+ChuA+PhrtAB-luxCDABE) (Lactococcus cremoris, UniProt A2RIY0); assay: Hemin response of E. coli MG1655 with HrtR+ChuA+PhrtAB-luxCDABE (luminescence); type: cell-based
T1 sequence (A2RIY0 1-189): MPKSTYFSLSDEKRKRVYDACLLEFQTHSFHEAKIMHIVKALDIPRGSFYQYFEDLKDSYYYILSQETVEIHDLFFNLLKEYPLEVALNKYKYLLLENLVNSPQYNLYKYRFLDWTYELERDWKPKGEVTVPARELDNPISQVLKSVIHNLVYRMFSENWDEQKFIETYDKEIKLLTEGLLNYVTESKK

[2] = target: T2, Lactococcus lactis heme-responsive transcription factor HrtR, SEQ ID NO: 1 (in E. coli MG1655, no ChuA) (Lactococcus cremoris, UniProt A2RIY0); assay: Hemin response of E. coli MG1655 with HrtR and PhrtAB- or PL(HrtO)-luxCDABE without ChuA (luminescence); type: cell-based
T2 construct: PhrtAB- or PL(HrtO)-luxCDABE reporter
T2 sequence (A2RIY0 1-189): T1 sequence (A2RIY0 1-189)

SMILES: C=CC1=C(C)c2cc3[nH]c(cc4nc(cc5[nH]c(cc1n2)c(C)c5CCC(=O)O)C(CCC(=O)O)=C4C)c(C)c3C=C.[Fe+2] [heme]
- response concentration range ([1]; with ChuA): sub-micromolar range

SMILES: C=CC1=C(C)c2cc3[nH]c(cc4nc(cc5[nH]c(cc1n2)c(C)c5CCC(=O)O)C(CCC(=O)O)=C4C)c(C)c3C=C.[Fe+3] [hemin]
- time to detectable differences in luminescence ([1]; depending on the concentration of hemin used): 30 to 60 min
- response of gene circuit to extracellular hemin [2]: insensitive
